Source: ChEMBL document CHEMBL1152416, “N-terminal-prolonged vinyl ester-based peptides as selective proteasome beta1 subunit inhibitors” (Bioorg Med Chem, 2009)
pIC50: −log10 of the molar value. Where a SMILES comes first, the peptide text is derived from it. The star is where a group is joined. Cbz = O=C(OCc1ccccc1)*; X1 = C=CO*

Key:
[1] = Inhibition of trypsin-like activity of proteasome from human PBMC after 30 mins by fluorimetry; assay type: subcellular
[2] = Inhibition of post acidic activity of proteasome from human PBMC after 30 mins by fluorimetry; assay type: subcellular
[3] = Inhibition of […] activity of proteasome from human LCL after 30 mins by fluorimetry; assay type: subcellular
[4] = Inhibition of […] activity of proteasome from human PBMC after 30 mins by fluorimetry; assay type: subcellular
[5] = Inhibition of post acidic activity of proteasome from human LCL after 30 mins by fluorimetry; assay type: subcellular
[6] = Inhibition of trypsin-like activity of proteasome from human LCL after 30 mins by fluorimetry; assay type: subcellular
[7] = Antiproliferative activity against human LCL cells assessed as cell viability at <10 uM after 3 days by trypan blue assay; assay type: cell-based; conditions: 72 h
JIYOYE [8] = assay: Antiproliferative activity against human Jijoye cells assessed as cell viability at 10 uM after 3 days by trypan blue assay; assay type: functional, cell-based
[9] = Antiproliferative activity against human LCL cells assessed as cell viability at 10 uM after 3 days by trypan blue assay; assay type: cell-based; conditions: 72 h
[10] = Inhibition of trypsin-like activity of proteasome in human PBMC after 30 mins by cell based assay; conditions: 0.5 h
JIYOYE [11] = assay: Antiproliferative activity against human Jijoye cells assessed as cell viability at <10 uM after 3 days by trypan blue assay; assay type: functional, cell-based
Homo sapiens = species on record: Homo sapiens; assay: Stability in human plasma assessed as half life
[12] = Inhibition of […] activity of proteasome from human PBMC after 30 mins by cell based assay; conditions: 0.5 h
[13] = Inhibition of post acidic activity of proteasome from human PBMC after 30 mins by cell based assay; conditions: 0.5 h

SMILES	pIC50 [1]	pIC50 [2]	pIC50 [3]	pIC50 [4]	pIC50 [5]	pIC50 [6]	Activity [7]	Activity (JIYOYE [8])	Activity [9]	pIC50 [10]	Activity (JIYOYE [11])	half-life (Homo sapiens) [h]	pIC50 [12]	pIC50 [13]
CC[C@H](C)[C@H](NC(=O)[C@H]([C@@H](C)CC)N(C)C(C)=O)C(=O)N[C@H](C(=O)N[C@@H](CC(C)C)C(=O)[C@@]1(C)CO1)[C@@H](C)O [EPOXOMYCIN]	6.12	< 5.00	8.30	8.05	–	–	–	–	–	–	–	–	–	–
C=COC(=O)[C@H](CC(C)C)NC(=O)[C@H](CC(C)C)NC(=O)[C@H](CC(C)C)NC(=O)CNC(=O)OCc1ccccc1 (Cbz-GLLL-X1)	< 5.00	6.26	< 5.00	< 5.00	< 5.00	< 5.00	–	–	–	–	–	–	–	–
C=COC(=O)[C@H](CC(C)C)NC(=O)[C@H](CO)NC(=O)[C@@H](NC(=O)CCCCCCCNC(=O)OCc1ccccc1)C(C)C	< 5.00	6.76	< 5.00	< 5.00	5.25	< 5.00	Non-toxic	Toxic	Toxic	< 5.00	Non-toxic	> 6	< 5.00	6.66
CC(C)C[C@@H](C=O)NC(=O)[C@H](CC(C)C)NC(=O)[C@H](CC(C)C)NC(=O)OCc1ccccc1 [MG-132] (Cbz-Leu-Leu-Leu-aldehyde)	6.04	< 5.00	8.70	7.64	< 5.00	5.97	–	–	–	–	–	–	–	–
C=COC(=O)[C@H](CC(C)C)NC(=O)[C@H](CO)NC(=O)[C@@H](NC(=O)CCCCNC(=O)OCc1ccccc1)C(C)C	< 5.00	6.64	< 5.00	< 5.00	5.81	< 5.00	–	–	–	< 5.00	–	> 6	< 5.00	6.35
C=COC(=O)[C@H](CC(C)C)NC(=O)[C@H](CO)NC(=O)[C@@H](NC(=O)CCCNC(=O)OCc1ccccc1)C(C)C	< 5.00	6.13	< 5.00	< 5.00	5.20	< 5.00	–	–	–	–	–	–	–	–
C=COC(=O)[C@H](CC(C)C)NC(=O)[C@H](CC(C)C)NC(=O)[C@H](CC(C)C)NC(=O)CCNC(=O)OCc1ccccc1	< 5.00	6.67	< 5.00	< 5.00	5.63	< 5.00	–	–	–	< 5.00	–	> 6	< 5.00	6.49
C=COC(=O)[C@H](CC(C)C)NC(=O)[C@H](CO)NC(=O)[C@@H](NC(=O)CCCCCNC(=O)OCc1ccccc1)C(C)C	< 5.00	6.70	< 5.00	< 5.00	5.86	< 5.00	–	–	–	< 5.00	–	> 6	< 5.00	6.39
C=COC(=O)[C@H](CC(C)C)NC(=O)[C@H](CO)NC(=O)[C@@H](NC(=O)CNC(=O)OCc1ccccc1)C(C)C (Cbz-GVSL-X1)	< 5.00	5.54	< 5.00	< 5.00	< 5.00	< 5.00	–	–	–	–	–	–	–	–
C=COC(=O)[C@H](CC(C)C)NC(=O)[C@H](CC(C)C)NC(=O)[C@H](CC(C)C)NC(=O)CCCCCCCNC(=O)OCc1ccccc1	< 5.00	6.31	< 5.00	< 5.00	5.61	< 5.00	–	–	–	–	–	–	–	–
C=COC(=O)[C@H](CC(C)C)NC(=O)[C@H](CC(C)C)NC(=O)[C@H](CC(C)C)NC(=O)CCCCCCNC(=O)OCc1ccccc1	< 5.00	6.78	< 5.00	< 5.00	5.78	< 5.00	–	–	–	–	–	–	–	–
C=COC(=O)[C@H](CC(C)C)NC(=O)[C@H](CC(C)C)NC(=O)[C@H](CC(C)C)NC(=O)CCCCNC(=O)OCc1ccccc1	5.22	7.11	< 5.00	< 5.00	6.06	< 5.00	–	–	–	5.02	–	> 6	< 5.00	6.89
C=COC(=O)[C@H](CC(C)C)NC(=O)[C@H](CO)NC(=O)[C@@H](NC(=O)CCNC(=O)OCc1ccccc1)C(C)C	< 5.00	6.08	< 5.00	< 5.00	< 5.00	< 5.00	–	–	–	–	–	–	–	–
C=COC(=O)[C@H](CC(C)C)NC(=O)[C@H](CC(C)C)NC(=O)[C@H](CC(C)C)NC(=O)CCCCCNC(=O)OCc1ccccc1	5.22	7.28	< 5.00	< 5.00	5.97	< 5.00	Non-toxic	Toxic	Toxic	5.05	Non-toxic	> 6	< 5.00	7.07
C=COC(=O)[C@H](CC(C)C)NC(=O)[C@H](CO)NC(=O)[C@@H](NC(=O)CCCCCCNC(=O)OCc1ccccc1)C(C)C	< 5.00	6.73	< 5.00	< 5.00	5.57	< 5.00	–	–	–	< 5.00	–	> 6	< 5.00	6.63
C=COC(=O)[C@H](CC(C)C)NC(=O)[C@H](CC(C)C)NC(=O)[C@H](CC(C)C)NC(=O)CCCNC(=O)OCc1ccccc1	5.14	6.68	< 5.00	< 5.00	5.68	< 5.00	–	–	–	< 5.00	–	> 6	< 5.00	6.48
